Experiments:
HIV = assay: Anti-AIDS (HIV) activity in HIV-infected MT-4 cells (MTT method); type: cell-based; settings: for EC50 (50% effective concentration, prevention of 50% of cytopathogenic effects of HIV): 37° C., MTT method
Description: (§1) Evaluation method: Test substances having various concentrations were placed in a 96-well microtiter plate along with HIV-infected MT-4 cells (2.5×10^4 /well, MOI: 0.01) immediately after the infection thereof. In order to ascertain the cytotoxicity of the test substance with respect to the MT-4 cells, non-infected cells were cultured in an identical manner along with the test substances of various concentrations. After culturing for 5 days at a temperature of 37° C. in a CO2 incubator, the number of living cells was determined using the MTT method. The antiviral activity is shown in terms of the concentration which prevented 50% of the cytopathogenic effects of the HIV virus (EC50 : 50% effective concentration) and the cytotoxicity is shown in terms of the concentration at which the cytotoxicity of the test substance reaches 50% (CC50 : 50% cytotoxic concentration).Furthermore, the selectivity index (S.I.) is calculated as CC50 /EC50.
(§2) (Reference: Pauwels, et al., J. Viral Methods, 20 (1988) 309-321). Using this method, the compounds of Examples 30-43 were tested for anti-HIV activity. The compounds shown in Table 2 (Examples 35~38) are produced by means of novel sulfation methods. For the purposes of comparison, the conventional anti-AIDS agents AZT (3'-azido-2',3'-dideoxythymidine) and dextran sulfate were also tested, and the results thereof are appended as comparative data.

MT-4 cells = assay: Cytotoxicity with respect to non-infected MT-4 cells (MTT method); type: cell-based; settings: 5 days; for CC50 (50% cytotoxic concentration): 37° C., MTT method
Description: as §1, §2

[1] = HIV-infected MT-4 cells, MOI 0.01, 5 days

What does the source list for “p-(1,1,3,3-tetramethylbutyl)phenyl β-D-glucopyranosyl-(1→3)-{β-D-glucopyranosyl-(1→3)}3 -β-D-glucopyranoside sulfate [Example 35]”?
EC50 (50% effective concentration, prevention of 50% of cytopathogenic effects of HIV) (HIV; [1]): 0.038 µg/mL; CC50 (50% cytotoxic concentration) (MT-4 cells): > 1000 µg/mL

How did the “EC50 (50% effective concentration, prevention of 50% of cytopathogenic effects of HIV)” value (HIV; [1]) turn out when “p-octylphenyl β-D-glucopyranosyl-(1→3)-{β-D-glucopyranosyl (1→3)}5 -β-D-glucopyranoside sulfate [Example 34]” was run?
The value was 0.31 µg/mL.

What about the “CC50 (50% cytotoxic concentration)” value (MT-4 cells) of the same compound?
The value was > 1000 µg/mL.

How did the “EC50 (50% effective concentration, prevention of 50% of cytopathogenic effects of HIV)” value (HIV; [1]) turn out when “p-(1,1,3,3-tetramethylbutyl)phenyl β-D-galactopyranosyl-(1→4)-{β-D-galactopyranosyl-(1→4)}2 -β-D-glucopyranoside sulfate [Example 43]” was run?
Its value is 0.04 µg/mL.

What about the “CC50 (50% cytotoxic concentration)” value (MT-4 cells) of the same compound?
The value was > 1000 µg/mL.

Which results are given for “octylphenyl β-D-galactopyranosyl-(1→4)-{β-D-galactopyranosyl-(1→4)}2 -β-D-glucopyranoside sulfate [Example 39]”?
EC50 (50% effective concentration, prevention of 50% of cytopathogenic effects of HIV) (HIV; [1]): 0.82 µg/mL; CC50 (50% cytotoxic concentration) (MT-4 cells): > 1000 µg/mL

How did the “EC50 (50% effective concentration, prevention of 50% of cytopathogenic effects of HIV)” value (HIV; [1]) turn out when dextran sulfate [reference compound] was run?
Its value is 0.50 µg/mL.

What about the “CC50 (50% cytotoxic concentration)” value (MT-4 cells) of the same compound?
Its value is > 1000 µg/mL.

Cc1cn([C@H]2C[C@H](N=[N+]=[N-])[C@@H](CO)O2)c(=O)[nH]c1=O [AZT, 3'-azido-2',3'-dideoxythymidine, reference compound] was tested. Which “SI (selectivity index, CC50/EC50)” value (HIV; CC50/EC50, MT-4 cells, HIV) did it give?
The value was 2700.

What about the EC50 (HIV; Human immunodeficiency virus 1, MT4, 120 h, AZT, footnote: units are μM, HIV-infected MT-4 cells, MOI 0.01, 5 days, read-out: EC50 (50% effective concentration)) of the same compound?
The EC50 was 0.004 µM.

What about the CC50 (MT-4 cells; AZT, footnote: units are μM, read-out: CC50 (50% cytotoxic concentration)) of the same compound?
Its CC50 is 10.8 µM.

For “sulfated p-heptyloxyphenyl β-D-glucopyranosyl-(1→3)-{β-D-glucopyranosyl-(1→3)}3 -β-D-glucopyranoside [Example 32]”, which “EC50 (50% effective concentration, prevention of 50% of cytopathogenic effects of HIV)” value (HIV; [1]) is on record?
Its value is 0.72 µg/mL.

And the “CC50 (50% cytotoxic concentration)” value (MT-4 cells)?
The value was > 1000 µg/mL.

Which “EC50 (50% effective concentration, prevention of 50% of cytopathogenic effects of HIV)” value (HIV; [1]) does the source give for “heptyloxyphenyl β-D-galactopyranosyl-(1→4)-{β-D-galactopyranosyl-(1→4)}2 -β-D-glucopyranoside sulfate [Example 42]” here?
The value was 0.23 µg/mL.

What about the “CC50 (50% cytotoxic concentration)” value (MT-4 cells) of the same compound?
Its value is > 1000 µg/mL.

For “p-heptyloxyphenyl β-D-glucopyranosyl-(1→3)-{β-D-glucopyranosyl (1→3)}3 -β-D-glucopyranoside sulfate [Example 36]”, which “EC50 (50% effective concentration, prevention of 50% of cytopathogenic effects of HIV)” value (HIV; [1]) is on record?
The value was 0.062 µg/mL.

And the “CC50 (50% cytotoxic concentration)” value (MT-4 cells)?
The value was > 1000 µg/mL.

How did the “EC50 (50% effective concentration, prevention of 50% of cytopathogenic effects of HIV)” value (HIV; [1]) turn out when “p-octylphenyl β-D-glucopyranosyl-(1→3)-{β-D-glucopyranosyl (1→3)}3 -β-D-glucopyranoside sulfate [Example 37]” was run?
Its value is 0.080 µg/mL.

What about the “CC50 (50% cytotoxic concentration)” value (MT-4 cells) of the same compound?
Its value is > 1000 µg/mL.

“p-heptyloxyphenyl β-D-glucopyranosyl-(1→3)-{β-D-glucopyranosyl-(1→3)}3 -β-D-glucopyranoside sulfate [Example 33]” was tested. Which “EC50 (50% effective concentration, prevention of 50% of cytopathogenic effects of HIV)” value (HIV; [1]) did it give?
Its value is 0.77 µg/mL.

What about the “CC50 (50% cytotoxic concentration)” value (MT-4 cells) of the same compound?
Its value is > 1000 µg/mL.

For “p-octylphenyl β-D-glucopyranosyl-(1→3)-{β-D-glucopyranosyl (1→3)}3 -β-D-glucopyranoside sulfate [Example 30]”, which “EC50 (50% effective concentration, prevention of 50% of cytopathogenic effects of HIV)” value (HIV; [1]) is on record?
Its value is 0.62 µg/mL.

What about the “CC50 (50% cytotoxic concentration)” value (MT-4 cells) of the same compound?
The value was > 1000 µg/mL.

“p-(1,1,3,3-tetramethylbutyl)phenyl β-D-glucopyranosyl-(1→3)-{β-D-glucopyranosyl-(1→3)}m -β-D-glucopyranoside sulfate [Example 38]” was tested. Which “EC50 (50% effective concentration, prevention of 50% of cytopathogenic effects of HIV)” value (HIV; [1]) did it give?
Its value is 0.020 µg/mL.

What about the “CC50 (50% cytotoxic concentration)” value (MT-4 cells) of the same compound?
Its value is > 1000 µg/mL.

How did the “EC50 (50% effective concentration, prevention of 50% of cytopathogenic effects of HIV)” value (HIV; [1]) turn out when “octyloxyphenyl β-D-galactopyranosyl-(1→4)-{β-D-galactopyranosyl-(1→4)}2 -β-D-glucopyranoside sulfate [Example 40]” was run?
Its value is 0.95 µg/mL.

And the “CC50 (50% cytotoxic concentration)” value (MT-4 cells)?
The value was > 1000 µg/mL.

Which “EC50 (50% effective concentration, prevention of 50% of cytopathogenic effects of HIV)” value (HIV; [1]) does the source give for “octyloxyphenyl β-D-galactopyranosyl-(1→4)-β-D-galactopyranosyl-(1→4)-β-D-glucopyranoside sulfate [Example 41]” here?
Its value is 1.12 µg/mL.

What about the “CC50 (50% cytotoxic concentration)” value (MT-4 cells) of the same compound?
The value was > 1000 µg/mL.

For “p-pentylphenyl β-D-glucopyranosyl-(1→3)-{β-D-glucopyranosyl (1→3)}3 -β-D-glucopyranoside sulfate [Example 31]”, which “EC50 (50% effective concentration, prevention of 50% of cytopathogenic effects of HIV)” value (HIV; [1]) is on record?
The value was 0.75 µg/mL.

And the “CC50 (50% cytotoxic concentration)” value (MT-4 cells)?
Its value is > 1000 µg/mL.

— patent US5498602A, “Oligosaccharide aromatic glycoside and sulfate thereof” (priority 1991, dated 1996)
